Assay results published in patent publication US7488568B2, “Resist composition, method of forming resist pattern, compound and acid generator” (Tokyo Ohka Kogyo Co., Ltd., priority 2008, dated 2009).

Experiment: Evaluation of solubility of acid generators in resist solvents (concentration at which completely dissolved)
Format: physicochemical
Settings: for Solubility in EL (% by weight): ethyl lactate; for Solubility in PGME (% by weight): propylene glycol monomethyl ether; for Solubility in PGMEA (% by weight): propylene glycol monomethyl ether acetate
Experimental: With respect to each of the compounds, propylene glycol monomethyl ether acetate (PGMEA) solutions, propylene glycol monomethyl ether (PGME) solutions and ethyl lactate (EL) solutions of various concentrations were prepared. The prepared solutions were stirred to evaluate the concentration at which the acid generator was completely dissolved.

[1] = Table 1, concentration at which completely dissolved

SMILES	Solubility in EL (% by weight) (Table 8)	Solubility in PGME (% by weight) (Table 8)	Solubility in PGMEA (% by weight) (Table 8)	Solubility in EL (% by weight) (Table 1)	Solubility in PGMEA (% by weight) (Table 1)	Solubility in PGME (% by weight) [1]
c1ccc([S+](c2cccc3ccccc23)c2cccc3ccccc23)cc1 [(1)]	5.0	5.0 % by weight	<2.0 % by weight	–	–	–
c1ccc(-[s+]2c3ccccc3c3ccccc32)cc1 [(2)]	20.0	20.0 % by weight	10~15 % by weight	–	–	–
c1ccc(-[s+]2c3ccccc3c3ccccc32)cc1 [(b1-01), phenyldibenzothiophenium nonafluorobutane sulfonate]	–	–	–	20 % by weight	20 % by weight	10-15 % by weight
c1ccc([S+](c2cccc3ccccc23)c2cccc3ccccc23)cc1 [(b′-01), di(1-naphthyl)phenylsulfonium nonafluorobutane sulfonate]	–	–	–	5 % by weight	5 % by weight	<2 % by weight
Cc1cc(-[s+]2c3ccccc3c3ccccc32)cc(C)c1O [Compound (b1-51)]	–	10~15 % by weight	–	10-15 % by weight	10-15 % by weight	<2 % by weight
Cc1cc(-[s+]2c3ccccc3c3ccccc32)cc(C)c1OC(=O)OC(C)(C)C [Compound (b1-81)]	–	–	–	20 % by weight	20 % by weight	10 % by weight
Cc1cc(-[s+]2c3ccccc3c3ccccc32)cc(C)c1OCOC1CCCCC1 [b1-100]	>30	>30 % by weight	>30 % by weight	–	–	–
